Consider 42 compounds from US11266643B2, “Triaryl compounds for treatment of PD-L1 diseases” (CHEMOCENTRYX, INC., priority 2019, dated 2022).

This test deals with human PD-L1 (Homo sapiens (Human), UniProt Q9NZQ7). Kind of test: Enzyme-Linked Immunosorbent Assay (ELISA), PD-1/PD-L1 binding. Here is the method: 96 Well plates were coated with […] of human PD-L1 (obtained from R&D) in PBS overnight at 4° C. The wells were then blocked with 2% BSA in PBS (W/V) with 0.05% TWEEN-20 for 1 hour at 37° C. The plates were washed 3 times with PBS/0.05% TWEEN-20 and the compounds were serial diluted (1:5) in dilution medium and added to the ELISA plates. Human PD-1 […] 0.31 μg/mL (ACRO Biosystems) were added and incubated for 1 hour at 37° C. then washed 3 times with PBS/0.05% TWEEN-20. A second block was performed with 2% BSA in PBS (W/V)/0.05% TWEEN-20 for 10 min at 37° C. and the plates were washed 3 times with PBS/0.05% TWEEN-20. Streptavidin-HRP was added for 1 hour at 37° C. then the plates were washed 3 times with PBS/0.05% TWEEN-20. TMB substrate was added and reacted for 20 min at 37° C. A stop solution (2 N aqueous H2SO4) was added. The absorbance was read at 450 nm using a micro-plate spectrophotometer.
Sequence of human PD-L1 (Q9NZQ7 19-239): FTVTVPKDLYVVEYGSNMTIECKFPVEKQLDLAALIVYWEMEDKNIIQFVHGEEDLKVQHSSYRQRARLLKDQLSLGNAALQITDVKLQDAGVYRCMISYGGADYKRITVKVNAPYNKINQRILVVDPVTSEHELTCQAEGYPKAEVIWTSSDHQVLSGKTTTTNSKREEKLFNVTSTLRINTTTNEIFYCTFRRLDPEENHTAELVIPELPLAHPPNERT
Using the methods described in the Examples above, the compounds in Table 2 were prepared & tested for biological activity using the ELISA method described above.

[1] abbreviates: PD-1/PD-L1 ELISA, human PD-L1 coated plates, Table 1.
The mark [2] stands for this setting: human PD-1/PD-L1 ELISA, plates coated with human PD-L1.
Setting [3] is: plate-coated human PD-L1, biotinylated Human PD-1, absorbance at 450 nm.

As for `COc1cc(-c2cccc(-c3cccc(NC(=O)c4c[nH]c(=O)n(C)c4=O)c3C)c2C)cc(F)c1CN(C)CCC(=O)O` [Example 1.247], under setting [1], the IC50 lay in the range of 10 to 1000 nM.

With `COc1cc(-c2cccc(-c3cccc(NC(=O)c4nn(C)c(=O)n(C)c4=O)c3C)c2C)cc(F)c1CN[C@@H]1CCC(=O)NC1=O` [Example 1.058], the concentration for half-maximal inhibition (IC50) under setting [2] lay in the range of 10 to 1000 nM.

With `COc1cc(-c2cccc(-c3cccc(NC(=O)c4cn(C)c(=O)n(C)c4=O)c3C)c2C)cc(F)c1CN[C@@H]1CCC(=O)NC1` [Example 1.107], under setting [2], the IC50 is less than 10 nM.

Take `COc1cc(-c2cccc(-c3cccc(NC(=O)c4ncco4)c3C)c2C)cc(F)c1CN1CC(C(=O)O)C1` [Example 1.349]: under setting [1], the IC50 is 10 to 1000 nM.

Under setting [3], `COc1cc(-c2cccc(-c3cccc(NC(=O)c4cn(C)c(=O)n(C)c4=O)c3Cl)c2Cl)cc(F)c1CNC(C)C` [Example 2.063] showed an IC50 of less than 10 nM.

For the compound `COc1cc(-c2cccc(-c3cccc(NC(=O)c4c[nH]c(=O)n(C)c4=O)c3C)c2C)cc(F)c1CN[C@@H]1CCC(=O)NC1` [Example 1.094], the IC50 under setting [2] was less than 10 nM.

As to `COc1cc(-c2cccc(-c3cccc(NC(=O)c4cccnc4O)c3C)c2C)cc(F)c1CN` [Example 1.297], the 50% inhibitory concentration (IC50) under setting [1] fell in the range of 10 to 1000 nM.

Regarding `COc1cc(-c2cccc(-c3cccc(NC(=O)c4cncn(C)c4=O)c3C)c2C)cc(F)c1CN[C@@H]1CCC[C@@H]1O` [Example 1.199], the IC50 under setting [1] was less than 10 nM.

In turn, `COc1cc(-c2cccc(-c3cccc(Nc4nccc5c4OCCN5)c3C)c2C)cc(F)c1CN1CC(C(=O)O)C1` [Example 1.244] showed a half-maximal inhibitory concentration (IC50) under setting [1] of 10 to 1000 nM.

Under setting [2], `COc1cc(-c2cccc(-c3cccc(NC(=O)c4nn(C)c(=O)n(C)c4=O)c3C)c2C)cc(F)c1CN[C@@H]1CCCNC1=O` [Example 1.059] yielded a half-maximal inhibitory concentration (IC50) of 10 to 1000 nM.

`COc1cc(-c2cccc(-c3cccc(Nc4cccc5cncnc45)c3C)c2C)cc(F)c1CN1CC(C(=O)O)C1` [Example 1.246]: the IC50 under setting [1] was in the range of 10 to 1000 nM.

The compound `COc1cc(-c2cccc(-c3cccc(NC(=O)c4cn(C)c(=O)n(C)c4=O)c3C)c2Cl)cc(F)c1CN[C@@H]1CCC[C@@H]1O` [Example 2.051] displayed an IC50 under setting [3] of less than 10 nM.

In turn, `COc1cc(-c2cccc(-c3cccc(NC(=O)c4cn(C)c(=O)n(C)c4=O)c3C)c2Cl)cc(F)c1CNCC(C)(C)C(N)=O` [Example 1.034] had an IC50 under setting [2] of less than 10 nM.

`COc1cc(-c2cccc(-c3cccc(NC(=O)c4cncn(C)c4=O)c3C)c2C)cc(F)c1CNCCC(N)=O` [Example 1.091]: the IC50 under setting [2] was less than 10 nM.

Under setting [2], `COc1cc(-c2cccc(-c3cccc(NC(=O)c4cn(C)c(=O)n(C)c4=O)c3C)c2Cl)cc(F)c1CN[C@@H]1CCOC[C@@H]1O` [Example 1.017] came in with a concentration for half-maximal inhibition (IC50) of less than 10 nM.

The compound `COc1cc(-c2cccc(-c3cccc(NC(=O)c4cnc(CO)cn4)c3C)c2C)cc(F)c1CN1CC(C(=O)O)C1` [Example 1.326] gave an IC50 under setting [1] of less than 10 nM.

Regarding `COc1cc(-c2cccc(-c3cccc(NC(=O)c4ccc(CNCCO)cn4)c3C)c2C)cc(F)c1CNCCCC(=O)O` [Example 1.401], under setting [2], the IC50 is less than 10 nM.

For `COc1cc(-c2cccc(-c3cccc(NC(=O)c4cn(C)c(=O)n(C)c4=O)c3C)c2Cl)cc(F)c1CN(C)C1CCOCC1` [Example 2.069], the IC50 under setting [3] was less than 10 nM.

Under setting [3], `COc1cc(-c2cccc(-c3cccc(NC(=O)c4cn(C)c(=O)n(C)c4=O)c3C)c2Cl)cc(F)c1CNCC(C)(C)O` [Example 2.045] showed an IC50 of less than 10 nM.

Consider `COc1cc(-c2cccc(-c3cccc(NC(=O)C4CN(CC(=O)O)CCO4)c3C)c2C)cc(F)c1CN` (stereo not drawn) [Example 1.314], for which the half-inhibitory concentration (IC50) under setting [1] was in the range of 10 to 1000 nM.

In turn, `COc1cc(-c2cccc(-c3cccc(NC(=O)c4c[nH]c(=O)n(C)c4=O)c3C)c2C)cc(F)c1CNC[C@H]1CCC(=O)N1` [Example 1.158] came in with an IC50 under setting [2] of less than 10 nM.

Under setting [2], `COc1cc(-c2cccc(-c3cccc(NC(=O)c4cncn(C)c4=O)c3C)c2C)cc(F)c1CN[C@H]1CCC[C@H]1O` [Example 1.161] yielded a concentration for half-maximal inhibition (IC50) of less than 10 nM.

`COc1cc(-c2cccc(-c3cccc(NC(=O)c4cn(C)c(=O)n(C)c4=O)c3C)c2C)cc(F)c1CN[C@@H]1CCC[C@H]1O` [Example 1.137] showed a 50% inhibitory concentration (IC50) under setting [2] of less than 10 nM.

As for `COc1cc(-c2cccc(-c3cccc(NC(=O)c4cncn(C)c4=O)c3C)c2C)cc(F)c1CNCCS(=O)(=O)O` [Example 1.260], under setting [1], the 50% inhibitory concentration (IC50) was less than 10 nM.

Compound `COc1cc(-c2cccc(-c3cccc(NC(=O)c4cn(C)c(=O)n(C)c4=O)c3Cl)c2C)cc(F)c1CNC[C@@H]1CCC(=O)N1` [Example 1.030] gave a concentration for half-maximal inhibition (IC50) under setting [2] of less than 10 nM.

Under setting [1], `COc1cc(-c2cccc(-c3cccc(NC(=O)c4c[nH]c(=O)n(C)c4=O)c3C)c2C)cc(F)c1CNC1CNC1` [Example 1.212] registered an IC50 of 10 to 1000 nM.

For the compound `COc1cc(-c2cccc(-c3cccc(NC(=O)c4cccn(C)c4=O)c3C)c2C)cc(F)c1CNCCS(=O)(=O)O` [Example 1.280], under setting [1], the IC50 was less than 10 nM.

For the compound `COc1cc(-c2cccc(-c3cccc(NC(=O)c4cn(C)c(=O)n(C)c4=O)c3C)c2C)cc(F)c1CN[C@@H]1CCOC[C@H]1O` [Example 1.012], the IC50 under setting [2] is less than 10 nM.

Regarding `COc1cc(-c2cccc(-c3cccc(NC(=O)c4c(C)cc(C)n(C)c4=O)c3C)c2C)cc(F)c1CN1CC(C(=O)O)C1` [Example 1.275], under setting [1], the concentration for half-maximal inhibition (IC50) was 10 to 1000 nM.

Under setting [3], `COc1cc(-c2cccc(-c3cccc(NC(=O)c4cn(C)c(=O)n(C)c4=O)c3Cl)c2Cl)cc(F)c1CN1CCC[C@@H](C(=O)O)C1` [Example 2.003] displayed a half-maximal inhibitory concentration (IC50) of less than 10 nM.

Under setting [1], `COc1cc(-c2cccc(-c3cccc(NC(=O)c4cncn(C)c4=O)c3C)c2C)cc(F)c1CNCCO` [Example 1.221] returned an IC50 of less than 10 nM.

On to `COc1cc(-c2cccc(-c3cccc(NC(=O)c4cccn(C)c4=O)c3C)c2C)cc(F)c1CNC[C@@H]1CCC(=O)N1C` [Example 1.156], for which the 50% inhibitory concentration (IC50) under setting [2] is less than 10 nM.

The compound `COc1cc(-c2cccc(-c3cccc(NC(=O)c4ccccn4)c3C)c2C)cc(F)c1CNC(CO)(CO)CO` [Example 1.379] showed an IC50 under setting [1] of less than 10 nM.

Under setting [1], `COc1cc(-c2cccc(-c3cccc(NC(=O)c4ccnc(N)n4)c3C)c2C)cc(F)c1CN1CC(C(=O)O)C1` [Example 1.347] showed a half-maximal inhibitory concentration (IC50) of 10 to 1000 nM.

Under setting [1], `COc1cc(-c2cccc(-c3cccc(Nc4nccc5nccnc45)c3C)c2C)cc(F)c1CNC[C@@H](C)O` [Example 1.208] had an IC50 of less than 10 nM.

Take `COc1cc(-c2cccc(-c3cccc(NC(=O)c4cnccn4)c3C)c2C)cc(F)c1CN1CC(C(=O)O)C1` [Example 1.357]: the IC50 under setting [1] is less than 10 nM.

Consider `COc1cc(-c2cccc(-c3cccc(NC(=O)c4c[nH]c(=O)n(C)c4=O)c3C)c2C)cc(F)c1CN[C@@H]1COC[C@H]1O` [Example 1.078], for which the IC50 under setting [2] is less than 10 nM.

As for `COc1cc(-c2cccc(-c3cccc(NC(=O)c4c[nH]c(=O)n(C)c4=O)c3Cl)c2Cl)cc(F)c1CN[C@H]1CCC(=O)NC1` [Example 2.027], the IC50 under setting [3] was less than 10 nM.

Under setting [2], `COc1cc(-c2cccc(-c3cccc(NC(=O)c4cn(C)c(=O)n(C)c4=O)c3Cl)c2C)cc(F)c1CNCC(C)(C)C(N)=O` [Example 1.032] gave an IC50 of less than 10 nM.

Regarding `COc1cc(-c2cccc(-c3cccc(NC(=O)c4cccn(C)c4=O)c3C)c2C)cc(F)c1CNCCO` [Example 1.300], under setting [1], the IC50 was less than 10 nM.

Regarding `COc1cc(-c2cccc(-c3cccc(Nc4nccc5nccnc45)c3C)c2Cl)cc(F)c1CN[C@H]1CCC(=O)NC1` [Example 2.116], the IC50 under setting [3] is less than 10 nM.

Compound `COc1cc(-c2cccc(-c3cccc(NC(=O)c4cn(C)c(=O)n(C)c4=O)c3Cl)c2Cl)cc(F)c1CN(C)[C@H]1CNC(=O)C1` [Example 2.055] came in with an IC50 under setting [3] of 10 to 1000 nM.
